Key:
[1] = Systemic clearance in Sprague-Dawley rat at 0.2 mg/kg, iv through cassette dosing measured up to 300 mins by LC/MS/MS analysis; format: ADME, organism-based; details: in vivo
[2] = target: T1, Glucagon-like peptide 2 receptor (Homo sapiens, UniProt O95838); assay: Agonist activity at human GLP2R expressed in HEK293 cells after 5 hrs by luciferase reporter gene assay; format: cell-based
T1 sequence (O95838 whole entry): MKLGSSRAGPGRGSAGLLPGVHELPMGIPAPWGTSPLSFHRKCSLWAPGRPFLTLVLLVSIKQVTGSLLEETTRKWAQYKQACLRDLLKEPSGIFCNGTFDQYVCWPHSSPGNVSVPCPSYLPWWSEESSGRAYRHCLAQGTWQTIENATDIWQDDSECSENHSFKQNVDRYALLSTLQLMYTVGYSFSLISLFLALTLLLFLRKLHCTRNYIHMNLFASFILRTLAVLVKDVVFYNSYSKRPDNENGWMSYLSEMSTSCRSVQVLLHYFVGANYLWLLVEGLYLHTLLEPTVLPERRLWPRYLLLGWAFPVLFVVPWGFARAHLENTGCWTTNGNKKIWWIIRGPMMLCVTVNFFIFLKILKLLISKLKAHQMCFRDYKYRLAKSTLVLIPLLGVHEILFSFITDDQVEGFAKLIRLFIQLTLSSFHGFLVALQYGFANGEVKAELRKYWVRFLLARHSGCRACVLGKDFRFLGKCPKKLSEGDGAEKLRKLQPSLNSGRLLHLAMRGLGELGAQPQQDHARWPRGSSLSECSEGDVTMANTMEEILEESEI

[3] = tested on: HEK293; assay: Selectivity ratio of EC50 for human GLP1R expressed in HEK293 cells to EC50 for human GLP2R expressed in HEK293; format: cell-based
[4] = target: Glucagon-like peptide 1 receptor (Homo sapiens, UniProt P43220); assay: Agonist activity at human GLP1R expressed in HEK293 cells after 5 hrs by luciferase reporter gene assay; format: cell-based
Chain of Glucagon-like peptide 1 receptor (P43220 whole entry): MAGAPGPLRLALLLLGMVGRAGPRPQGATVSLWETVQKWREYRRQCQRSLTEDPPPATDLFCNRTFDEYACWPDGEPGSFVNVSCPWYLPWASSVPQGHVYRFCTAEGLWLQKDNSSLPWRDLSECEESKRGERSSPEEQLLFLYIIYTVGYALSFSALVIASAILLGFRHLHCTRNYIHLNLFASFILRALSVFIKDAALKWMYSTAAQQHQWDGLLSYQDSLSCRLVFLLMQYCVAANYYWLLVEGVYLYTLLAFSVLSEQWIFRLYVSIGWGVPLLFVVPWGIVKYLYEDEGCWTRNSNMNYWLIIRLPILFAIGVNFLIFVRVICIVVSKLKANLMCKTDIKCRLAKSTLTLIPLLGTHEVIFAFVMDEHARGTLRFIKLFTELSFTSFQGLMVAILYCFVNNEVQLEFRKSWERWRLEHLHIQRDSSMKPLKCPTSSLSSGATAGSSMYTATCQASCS

SMILES | clearance [1] [mL/min/kg] | EC50 [2] [nM] | Ratio EC50 [3] | EC50 [4] [nM]
CCCCC(NC(=O)[C@H](CCC(=O)O)NC(=O)[C@H](CC(=O)O)NC(=O)[C@H](CO)NC(=O)[C@H](Cc1ccccc1)NC(=O)[C@H](CO)NC(=O)CNC(=O)[C@H](CC(=O)O)NC(=O)CNC(=O)[C@@H](N)Cc1cnc[nH]1)C(=O)N[C@H](Cc1ccccc1)C(=O)N[C@H](C(=O)N[C@H](C(=O)N[C@@H](CC(C)C)C(=O)N[C@@H](CC(=O)O)C(=O)N[C@@H](Cc1ccccc1)C(=O)N[C@@H](CC(C)C)C(=O)N[C@@H](C)C(=O)N[C@@H](C)C(=O)N[C@@H](CCCNC(=N)N)C(=O)N[C@@H](CC(=O)O)C(=O)N[C@@H](Cc1ccccc1)C(=O)N[C@H](C(=O)N[C@@H](CC(N)=O)C(=O)N[C@@H](Cc1c[nH]c2ccccc12)C(=O)N[C@@H](CC(C)C)C(=O)N[C@H](C(=O)N[C@@H](CCC(N)=O)C(=O)N[C@H](C(=O)N[C@@H](CCCCN)C(=O)N[C@H](C(=O)N[C@H](C(=O)N[C@@H](CC(=O)O)C(N)=O)[C@@H](C)O)[C@@H](C)CC)[C@@H](C)O)[C@@H](C)CC)[C@@H](C)CC)[C@@H](C)CC)[C@@H](C)O (some centres not stated) | 0.24 | 0.06 | > 16000 | > 1000
CCCCC(NC(=O)[C@H](CCC(=O)O)NC(=O)[C@H](CC(=O)O)NC(=O)[C@H](CO)NC(=O)[C@H](Cc1ccccc1)NC(=O)[C@H](CO)NC(=O)CNC(=O)[C@H](CC(=O)O)NC(=O)CNC(=O)[C@@H](N)Cc1cnc[nH]1)C(=O)N[C@H](Cc1ccccc1)C(=O)N[C@H](C(=O)N[C@H](C(=O)N[C@@H](CC(C)C)C(=O)N[C@@H](CC(=O)O)C(=O)N[C@@H](Cc1ccccc1)C(=O)N[C@@H](CC(C)C)C(=O)N[C@@H](C)C(=O)N[C@@H](C)C(=O)N[C@@H](CCCNC(=N)N)C(=O)N[C@@H](CC(=O)O)C(=O)N[C@@H](Cc1ccccc1)C(=O)N[C@H](C(=O)N[C@@H](CC(N)=O)C(=O)N[C@@H](Cc1c[nH]c2ccccc12)C(=O)N[C@@H](CC(C)C)C(=O)N[C@H](C(=O)N[C@@H](CCC(N)=O)C(=O)N[C@H](C(=O)N[C@@H](CCCCN)C(=O)N[C@H](C(=O)N[C@H](C(=O)N[C@@H](CC(=O)O)C(=O)O)[C@@H](C)O)[C@@H](C)CC)[C@@H](C)O)[C@@H](C)CC)[C@@H](C)CC)[C@@H](C)CC)[C@@H](C)O (some centres not stated) | 0.15 | 0.06 | > 16000 | > 1000
CCCCC(NC(=O)[C@H](CCC(=O)O)NC(=O)[C@H](CC(=O)O)NC(=O)[C@H](CO)NC(=O)[C@H](Cc1ccccc1)NC(=O)[C@H](CO)NC(=O)CNC(=O)[C@H](CC(=O)O)NC(=O)CNC(=O)[C@@H](N)Cc1cnc[nH]1)C(=O)N[C@H](Cc1cccc(Cl)c1)C(=O)N[C@H](C(=O)N[C@H](C(=O)N[C@@H](CC(C)C)C(=O)N[C@@H](CC(=O)O)C(=O)N[C@@H](CC(C)C)C(=O)N[C@@H](CC(C)C)C(=O)N[C@@H](C)C(=O)N[C@@H](C)C(=O)N[C@@H](CCCNC(=N)N)C(=O)N[C@@H](CC(=O)O)C(=O)N[C@@H](Cc1ccccc1)C(=O)N[C@H](C(=O)N[C@@H](CC(N)=O)C(=O)N[C@@H](Cc1c[nH]c2ccccc12)C(=O)N[C@@H](CC(C)C)C(=O)N[C@H](C(=O)N[C@@H](CCC(N)=O)C(=O)N[C@H](C(=O)N[C@@H](CCCCN)C(=O)N[C@H](C(=O)N[C@H](C(=O)N[C@@H](CC(=O)O)C(N)=O)[C@@H](C)O)[C@@H](C)CC)[C@@H](C)O)[C@@H](C)CC)[C@@H](C)CC)[C@@H](C)CC)[C@@H](C)O (some centres not stated) | 0.2 | 0.09 | > 11000 | > 1000
CCCCC(NC(=O)[C@H](CCC(=O)O)NC(=O)[C@H](CC(=O)O)NC(=O)[C@H](CO)NC(=O)[C@H](Cc1ccccc1)NC(=O)[C@H](CO)NC(=O)CNC(=O)[C@H](CC(=O)O)NC(=O)CNC(=O)[C@@H](N)Cc1cnc[nH]1)C(=O)N[C@H](Cc1cccs1)C(=O)N[C@H](C(=O)N[C@H](C(=O)N[C@@H](CC(C)C)C(=O)N[C@@H](CC(=O)O)C(=O)N[C@@H](CC(C)C)C(=O)N[C@@H](CC(C)C)C(=O)N[C@@H](C)C(=O)N[C@H](C(=O)N[C@@H](CCCNC(=N)N)C(=O)N[C@@H](CC(=O)O)C(=O)N[C@@H](Cc1ccccc1)C(=O)N[C@H](C(=O)N[C@@H](CC(N)=O)C(=O)N[C@@H](Cc1c[nH]c2ccccc12)C(=O)N[C@@H](CC(C)C)C(=O)N[C@H](C(=O)N[C@@H](CCC(N)=O)C(=O)N[C@H](C(=O)N[C@@H](CCCCN)C(=O)N[C@H](C(=O)N[C@H](C(=O)N[C@@H](CC(=O)O)C(N)=O)[C@@H](C)O)[C@@H](C)CC)[C@@H](C)O)[C@@H](C)CC)[C@@H](C)CC)[C@@H](C)O)[C@@H](C)CC)[C@@H](C)O (some centres not stated) | 0.28 | 0.05 | > 20000 | > 1000
CCCCC(NC(=O)[C@H](CCC(=O)O)NC(=O)[C@H](CC(=O)O)NC(=O)[C@H](CO)NC(=O)[C@H](Cc1ccccc1)NC(=O)[C@H](CO)NC(=O)CNC(=O)[C@H](CC(=O)O)NC(=O)CNC(=O)[C@@H](N)Cc1cnc[nH]1)C(=O)N[C@H](Cc1ccccc1)C(=O)N[C@H](C(=O)N[C@H](C(=O)N[C@@H](CC(C)C)C(=O)N[C@@H](CC(=O)O)C(=O)N[C@@H](Cc1ccccc1)C(=O)N[C@@H](CC(C)C)C(=O)N[C@@H](C)C(=O)N[C@@H](C)C(=O)N[C@@H](CCCNC(=N)N)C(=O)N[C@@H](CC(=O)O)C(=O)N[C@@H](Cc1ccccc1)C(=O)N[C@H](C(=O)N[C@@H](CC(N)=O)C(=O)N[C@@H](Cc1c[nH]c2ccccc12)C(=O)N[C@@H](CC(C)C)C(=O)N[C@H](C(=O)N[C@@H](CCC(N)=O)C(=O)N[C@H](C(=O)N[C@@H](CCCCN)C(N)=O)[C@@H](C)O)[C@@H](C)CC)[C@@H](C)CC)[C@@H](C)CC)[C@@H](C)O (some centres not stated) | 0.3 | 0.09 | > 11000 | > 1000
CCCCC(NC(=O)[C@H](CCC(=O)O)NC(=O)[C@H](CC(=O)O)NC(=O)[C@H](CO)NC(=O)[C@H](Cc1ccccc1)NC(=O)[C@H](CO)NC(=O)CNC(=O)[C@H](CC(=O)O)NC(=O)CNC(=O)[C@@H](N)Cc1cnc[nH]1)C(=O)N[C@H](Cc1cccc(Cl)c1)C(=O)N[C@H](C(=O)N[C@H](C(=O)N[C@@H](CC(C)C)C(=O)N[C@@H](CC(=O)O)C(=O)N[C@@H](Cc1ccccc1)C(=O)N[C@@H](CC(C)C)C(=O)N[C@@H](C)C(=O)N[C@@H](C)C(=O)N[C@@H](CCCNC(=N)N)C(=O)N[C@@H](CC(=O)O)C(=O)N[C@@H](Cc1ccccc1)C(=O)N[C@H](C(=O)N[C@@H](CC(N)=O)C(=O)N[C@@H](Cc1c[nH]c2ccccc12)C(=O)N[C@@H](CC(C)C)C(=O)N[C@H](C(=O)N[C@@H](CCC(N)=O)C(=O)N[C@H](C(=O)N[C@@H](CCCCN)C(=O)N[C@H](C(=O)N[C@H](C(=O)N[C@@H](CC(=O)O)C(N)=O)[C@@H](C)O)[C@@H](C)CC)[C@@H](C)O)[C@@H](C)CC)[C@@H](C)CC)[C@@H](C)CC)[C@@H](C)O (some centres not stated) | 0.12 | 0.13 | > 7600 | > 1000
CCCCC(NC(=O)[C@H](CCC(=O)O)NC(=O)[C@H](CC(=O)O)NC(=O)[C@H](CO)NC(=O)[C@H](Cc1ccccc1)NC(=O)[C@H](CO)NC(=O)CNC(=O)[C@H](CC(=O)O)NC(=O)CNC(=O)[C@@H](N)Cc1cnc[nH]1)C(=O)N[C@H](Cc1ccccc1)C(=O)N[C@H](C(=O)N[C@H](C(=O)N[C@@H](CC(C)C)C(=O)N[C@@H](CC(=O)O)C(=O)N[C@@H](CC(C)C)C(=O)N[C@@H](CC(C)C)C(=O)N[C@@H](C)C(=O)N[C@@H](C)C(=O)N[C@@H](CCCNC(=N)N)C(=O)N[C@@H](CC(=O)O)C(=O)N[C@@H](Cc1ccccc1)C(=O)N[C@H](C(=O)N[C@@H](CC(N)=O)C(=O)N[C@@H](Cc1c[nH]c2ccccc12)C(=O)N[C@@H](CC(C)C)C(=O)N[C@H](C(=O)N[C@@H](CCC(N)=O)C(=O)N[C@H](C(=O)N[C@@H](CCCCN)C(=O)N[C@H](C(=O)N[C@H](C(=O)N[C@@H](CC(=O)O)C(=O)NCc1ccncc1)[C@@H](C)O)[C@@H](C)CC)[C@@H](C)O)[C@@H](C)CC)[C@@H](C)CC)[C@@H](C)CC)[C@@H](C)O (some centres not stated) | 0.27 | 0.04 | > 25000 | > 1000
CCCCC(NC(=O)[C@H](CCC(=O)O)NC(=O)[C@H](CC(=O)O)NC(=O)[C@H](CO)NC(=O)[C@H](Cc1ccccc1)NC(=O)[C@H](CO)NC(=O)CNC(=O)[C@H](CC(=O)O)NC(=O)CNC(=O)[C@@H](N)Cc1cnc[nH]1)C(=O)N[C@H](Cc1ccccc1)C(=O)N[C@H](C(=O)N[C@H](C(=O)N[C@@H](CC(C)C)C(=O)N[C@@H](CC(=O)O)C(=O)N[C@@H](CC(C)C)C(=O)N[C@@H](CC(C)C)C(=O)N[C@@H](C)C(=O)N[C@@H](C)C(=O)N[C@@H](CCCNC(=N)N)C(=O)N[C@@H](CC(=O)O)C(=O)N[C@@H](Cc1ccccc1)C(=O)N[C@H](C(=O)N[C@@H](CC(N)=O)C(=O)N[C@@H](Cc1c[nH]c2ccccc12)C(=O)N[C@@H](CC(C)C)C(=O)N[C@H](C(=O)N[C@@H](CCC(N)=O)C(=O)N[C@H](C(=O)N[C@@H](CCCCN)C(=O)N[C@H](C(=O)N[C@H](C(=O)N[C@@H](CC(=O)O)C(=O)NCc1ccccc1)[C@@H](C)O)[C@@H](C)CC)[C@@H](C)O)[C@@H](C)CC)[C@@H](C)CC)[C@@H](C)CC)[C@@H](C)O (some centres not stated) | 0.1 | 0.1 | > 10000 | > 1000

From ChEMBL document CHEMBL3822442, “Synthesis and Pharmacological Characterization of Novel Glucagon-like Peptide-2 (GLP-2) Analogues with Low Systemic Clearance” (J Med Chem, 2016)
